Assay results reported in paper PMC6983023, “Identification of Potential Dipeptidyl Peptidase (DPP)-IV Inhibitors among Moringa oleifera Phytochemicals by Virtual Screening, Molecular Docking Analysis, ADME/T-Based Prediction, and In Vitro Analyses” (Molecules, 2020).

How the values were obtained:
DPP-IV = target: T1, DPP-IV (Homo sapiens, UniProt P27487); test: In vitro DPP-IV inhibition assay (fluorescence, Abnova kit KA1311); assay type: biochemical; conditions: for inhibition at 100 µM: compound concentration 100 μM, read-out: inhibition rate; for IC50: fluorescence detection, 37 °C, 30 min
T1 construct: purchased Abnova Co. Ltd. (Taipei, Taiwan) KA1311
T1 sequence (P27487 whole entry): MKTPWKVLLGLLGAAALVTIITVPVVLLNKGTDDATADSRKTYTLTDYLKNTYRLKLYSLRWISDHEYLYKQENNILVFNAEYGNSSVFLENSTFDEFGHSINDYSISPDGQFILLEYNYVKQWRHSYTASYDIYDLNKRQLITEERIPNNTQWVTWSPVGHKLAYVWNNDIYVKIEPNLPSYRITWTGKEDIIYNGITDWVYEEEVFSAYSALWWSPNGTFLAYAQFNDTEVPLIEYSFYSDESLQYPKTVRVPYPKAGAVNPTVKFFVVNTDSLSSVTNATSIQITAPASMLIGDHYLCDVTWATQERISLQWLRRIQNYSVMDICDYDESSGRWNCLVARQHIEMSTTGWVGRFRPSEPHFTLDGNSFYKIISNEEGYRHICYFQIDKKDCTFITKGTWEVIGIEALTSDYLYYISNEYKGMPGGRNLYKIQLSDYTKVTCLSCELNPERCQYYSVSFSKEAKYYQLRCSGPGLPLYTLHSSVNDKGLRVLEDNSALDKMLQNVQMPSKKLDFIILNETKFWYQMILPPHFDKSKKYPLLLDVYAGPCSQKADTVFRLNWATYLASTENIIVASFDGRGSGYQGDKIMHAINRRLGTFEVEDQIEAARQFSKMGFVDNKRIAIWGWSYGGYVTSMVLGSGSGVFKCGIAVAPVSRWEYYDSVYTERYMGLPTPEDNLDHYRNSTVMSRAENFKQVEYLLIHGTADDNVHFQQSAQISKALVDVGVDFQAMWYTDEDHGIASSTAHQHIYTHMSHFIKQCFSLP
Method: A DPP-IV Inhibitor Screening Assay Kit (KA1311) was purchased from Abnova Co. Ltd. (Taipei, Taiwan). […] The in vitro inhibitory activity of each compound against DPP-IV was determined based on a fluorescence detection method. […] Additionally, a “100% initial activity well” (10 μL dimethyl sulfoxide [DMSO], 30 μL DPP assay buffer, and 10 μL DPP-IV) and a “background well” (10 μL DMSO and 40 μL DPP assay buffer) were prepared. Next, 50 μL of DPP was added to each well and incubated at 37 °C for 30 min. A FlexStation 3 multifunctional microplate reader (Molecular Devices, Sunnyvale, CA, USA) was used to detect the fluorescence value (excitation wavelength: 350–360 nm; emission wavelength: 450–465 nm). […] IC50 values were then calculated using GraphPad Prism 5 (GraphPad Software, La Jolla, CA, USA).

[1] = design: method as in doi:10.1002/ptr.2650080207; conditions: cited from earlier work
arthritis in rats = tested on: arthritis in rats; design: method as in PMID 11440138; conditions: cited from earlier work
Cathepsin L = tested on: Cathepsin L; design: method as in PMID 11440138; conditions: cited from earlier work
[2] = tested on: c-Jun N-terminal kinase (JNK) and p38 pathways; design: method as in PMID 25448500; conditions: induced by LPS stimulation; cited from earlier work
Cathepsin B = tested on: Cathepsin B; design: method as in PMID 11440138; conditions: cited from earlier work

In the case of `CCOC(=O)NCc1ccc(O[C@@H]2O[C@@H](C)[C@H](O)[C@@H](O)[C@H]2O)cc1` [Compound 1, O-Ethyl-4-[(α-L-rhamnosyloxy)benzyl] carbamate], the inhibition at 100 µM (DPP-IV) is listed as 71.2%, the IC50 (DPP-IV) is listed as 0.798 µM and the hypotensive effect [1] is listed as “a certain hypotensive effect”.
For `CC(=O)OC[C@H](Cc1ccccc1)NC(=O)[C@H](Cc1ccccc1)NC(=O)c1ccccc1` [Compound 3, Aurantiamide acetate], the effect on arthritis (arthritis in rats) is listed as “relieves arthritis”, the inhibition at 100 µM (DPP-IV) is listed as 23.5% and the IC50 (DPP-IV) is listed as 191 µM. The “Cathepsin L inhibition” value (Cathepsin L) was “inhibiting”, the “inhibition of JNK and p38 pathways” value [2] was “inhibit” and the “Cathepsin B inhibition” value (Cathepsin B) was “inhibiting”.
For `C[C@@H]1O[C@@H](Oc2ccc(CN=C=S)cc2)[C@H](O)[C@H](O)[C@H]1O` [Compound 2, 4-[(α-L-rhamnosyloxy)benzyl] Isothiocyanate], the inhibition at 100 µM (DPP-IV) was 30.9% and the IC50 (DPP-IV) was 158 µM.
